According to publication PMC5835169 (Clinical microbiology and infection : the official …, 2017):
In brackets after ≈: the same amount, converted by molar mass. Where no end group is shown, it is not given here.

Legend:
P. aeruginosa TRPA108 = type: cell-based; conditions: MDR strain TRPA108 isolated from cystic fibrosis patients
P. aeruginosa TRPA111 = type: cell-based; conditions: MDR strain TRPA111 isolated from cystic fibrosis patients
P. aeruginosa P001 = type: cell-based; conditions: MDR strain P001 isolated from cystic fibrosis patients
P. aeruginosa P002 = type: cell-based; conditions: MDR strain P002 isolated from cystic fibrosis patients
P. aeruginosa P003 = type: cell-based; conditions: MDR strain P003 isolated from cystic fibrosis patients
P. aeruginosa P004 = type: cell-based; conditions: MDR strain P004 isolated from cystic fibrosis patients
P. aeruginosa P005 = type: cell-based; conditions: MDR strain P005 isolated from cystic fibrosis patients
P. aeruginosa TRPA321 = type: cell-based; conditions: MDR strain TRPA321 isolated from cystic fibrosis patients
[1] = test system: differentiated primary HBE cells; test: Transepithelial Electrical Resistance; type: cell-based, human; conditions: apical, 24 hours after administration
mouse lungs = test: Pulmonary toxicity in uninfected mice; type: in vivo, C57BL/6J mice; conditions: for pulmonary toxicity: 0.35 mg/kg i.t., total inflammatory cells, differential cell counts, inflammation-associated genes; for effect on cell differential and inflammatory mediators in the lungs: uninfected mice, 7µg i.t. (7 times the minimum effective dose), 24h
P. aeruginosa PAO1 = type: cell-based; conditions: control strain PAO1 susceptible to antibiotics and AMPs
HBE cells = test: Toxicity to HBE cells; type: cell-based, human; conditions: 16µM

Compound	MIC (P. aeruginosa TRPA108) [µM]	MIC (P. aeruginosa TRPA111) [µM]	MIC (P. aeruginosa P001) [µM]	MIC (P. aeruginosa P002) [µM]	MIC (P. aeruginosa P003) [µM]	MIC (P. aeruginosa P004) [µM]	MIC (P. aeruginosa P005) [µM]	MIC (P. aeruginosa TRPA321) [µM]	final reduction in TEER / recovery ([1]; 32µM peptide in PBS)	final reduction in TEER / recovery ([1]; 64µM peptide in PBS)	pulmonary toxicity (mouse lungs)	effect on cell differential and inflammatory mediators in the lungs (mouse lungs)	MIC (P. aeruginosa PAO1) [µM]	toxicity to HBE cells (HBE cells)
CC[C@H](C)[C@H](NC(=O)[C@H](CCCCN)NC(=O)[C@H](CCC(=O)O)NC(=O)[C@H](CCCCN)NC(=O)[C@H](CO)NC(=O)[C@H](CCCCN)NC(=O)[C@H](CCCNC(=N)N)NC(=O)[C@H](Cc1ccccc1)NC(=O)[C@H](Cc1ccccc1)NC(=O)[C@H](CC(=O)O)NC(=O)CNC(=O)[C@H](CC(C)C)NC(=O)[C@@H](N)CC(C)C)C(=O)NCC(=O)N[C@@H](CCCCN)C(=O)N[C@@H](CCC(=O)O)C(=O)N[C@@H](Cc1ccccc1)C(=O)N[C@@H](CCCCN)C(=O)N[C@@H](CCCNC(=N)N)C(=O)N[C@H](C(=O)N[C@H](C(=O)N[C@@H](CCC(N)=O)C(=O)N[C@@H](CCCNC(=N)N)C(=O)N[C@H](C(=O)N[C@@H](CCCCN)C(=O)N[C@@H](CC(=O)O)C(=O)N[C@@H](Cc1ccccc1)C(=O)N[C@@H](CC(C)C)C(=O)N[C@@H](CCCNC(=N)N)C(=O)N[C@@H](CC(N)=O)C(=O)N[C@@H](CC(C)C)C(=O)N[C@H](C(=O)N1CCC[C@H]1C(=O)N[C@@H](CCCNC(=N)N)C(=O)N[C@H](C(=O)N[C@@H](CCC(=O)O)C(=O)N[C@@H](CO)C(=O)O)[C@@H](C)O)C(C)C)[C@@H](C)CC)C(C)C)[C@@H](C)CC [LL37, reference compound]	2 (≈ 8.99 µg/mL)	2 (≈ 8.99 µg/mL)	32 (≈ 144 µg/mL)	32 (≈ 144 µg/mL)	32 (≈ 144 µg/mL)	8 (≈ 35.9 µg/mL)	8 (≈ 35.9 µg/mL)	32 (≈ 144 µg/mL)	1/2	2/3	does not cause pulmonary toxicity	no effect		
RRWVRRVRRVWRRVVRVVRRWVRR [WLBU2]	1	1	6	4	6	2	2	2	completely recovered	completely recovered	does not cause pulmonary toxicity	no effect	2	not toxic
